# Results reported in ChEMBL document CHEMBL4376882, “Photodynamic Therapy for ras-Driven Cancers: Targeting G-Quadruplex RNA Structures with Bifunctional Alkyl-Modified Porphyrins” (J Med Chem, 2020).
# The source made the active and inactive calls. The calls are words filed in the database; no cut-off is given here.
# Experiments:
# [1] = Drug uptake in human PANC1 cells at 5 uM after 2 hrs by FACS analysis; format: ADME, cell-based; conditions: panc-1, 2 h
# [2] = test system: PANC-1; assay: Photodynamic antitumor activity against human PANC1 cells xenografted in SCID mouse assessed as reduction in tumor growth at 30 mg/kg administered intratumorally after 2 hrs photoirradiated by diode laser at 193 J/cm2 measured after 14 days by micrometer caliper method; format: functional, organism-based
# [3] = Drug uptake in human PANC1 cells at 5 uM after 16 hrs by FACS analysis; format: ADME, cell-based; conditions: panc-1, 16 h
# [4] = test system: PANC-1; assay: Antitumor activity against human PANC1 cells xenografted in SCID mouse assessed as reduction in tumor growth at 30 mg/kg administered intratumorally measured after 14 days by micrometer caliper method; format: functional, organism-based
# [5] = test system: PANC-1; assay: Cytotoxicity against human PANC1 cells assessed as reduction in metabolic activity at 20 nM after 24 to 72 hrs in dark followed by photoirradiation in presence of NADH by resazurin assay; format: functional, cell-based
# [6] = test system: MIA PaCa-2; assay: Cytotoxicity against human MIAPaCa2 cells harboring G12C point mutation assessed as reduction in metabolic activity after 48 hrs in dark followed by photoirradiation in presence of NADH by resazurin assay; format: functional, cell-based
# [7] = Binding affinity to NRAS RNA g-quadruplex (unknown origin) at 40 degree C by SPR analysis; format: nucleic-acid assay
# [8] = test system: PANC-1; assay: Cytotoxicity against human PANC1 cells assessed as reduction in metabolic activity after 48 hrs in dark followed by photoirradiation in presence of NADH by resazurin assay; format: functional, cell-based; conditions: PANC-1, light or radiation study
# [9] = test system: HEK293; assay: Cytotoxicity against human HEK293 cells assessed as reduction in metabolic activity after 24 to 72 hrs in dark followed by photoirradiation in presence of NADH by resazurin assay; format: ADME, cell-based
# [10] = test system: PANC-1; assay: Cytotoxicity against human PANC1 cells assessed as reduction in metabolic activity at 20 nM after 24 to 72 hrs in dark followed by photoirradiation in presence of NADH and NAC by resazurin assay; format: functional, cell-based
# [11] = target: Quadruplex DNA; assay: Binding affinity to human KRAS utr-z RNA g-quadruplex at 40 degree C by SPR analysis; format: nucleic-acid assay
# [12] = test system: PANC-1; assay: Induction of apoptosis in human PANC1 cells assessed as early apoptotic cells at 15 nM and photoirradiated at 7.2 J/cm2 measured after 6 to 24 hrs by annexin-V-propidium iodide staining based FACScalibur flow cytometry analysis (reference value: 7.8 %); format: functional
# [13] = test system: PANC-1; assay: Induction of apoptosis in human PANC1 cells assessed as cleavage of PARP1 when photoirradiated at 7.2 J/cm2 by Western blot analysis; format: functional, cell-based
# [14] = target: GTPase KRas (Homo sapiens) (UniProt P01116); assay: Inhibition of KRAS in human PANC1 cells assessed as decrease in KRAS mRNA level at 15 nM followed by 7.2 J/cm2 irradiation after 4 hrs by qRT-PCR analysis; format: cell-based
# GTPase KRas (Homo sapiens), sequence (P01116 whole entry, looked up): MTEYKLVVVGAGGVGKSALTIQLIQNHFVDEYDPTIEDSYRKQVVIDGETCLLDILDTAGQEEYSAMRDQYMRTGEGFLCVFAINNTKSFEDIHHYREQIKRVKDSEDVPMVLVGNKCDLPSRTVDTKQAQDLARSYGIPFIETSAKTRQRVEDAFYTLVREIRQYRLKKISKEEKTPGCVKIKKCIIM
# [15] = test system: PANC-1; assay: Induction of apoptosis in human PANC1 cells assessed as late apoptotic cells at 10 nM and photoirradiated at 7.2 J/cm2 measured after 6 to 24 hrs by annexin-V-propidium iodide staining based FACScalibur flow cytometry analysis (reference value: 3.6 %); format: functional
# [16] = test system: PANC-1; assay: Induction of apoptosis in human PANC1 cells assessed as viable cells at 10 nM and photoirradiated at 7.2 J/cm2 measured after 6 to 24 hrs by annexin-V-propidium iodide staining based FACScalibur flow cytometry analysis (reference value: 85.5 %); format: functional; conditions: PANC-1, light or radiation study, read-out: Activity
# [17] = target: Quadruplex DNA; assay: Binding affinity to human KRAS utr-z RNA g-quadruplex by fluorescence spectroscopy; format: nucleic-acid assay
# [18] = test system: PANC-1; assay: Induction of apoptosis in human PANC1 cells assessed as cleavage of caspase 3 when photoirradiated at 7.2 J/cm2 by Western blot analysis; format: functional, cell-based
# [19] = test system: PANC-1; assay: Induction of apoptosis in human PANC1 cells assessed as early apoptotic cells at 5 nM and photoirradiated at 7.2 J/cm2 measured after 6 to 24 hrs by annexin-V-propidium iodide staining based FACScalibur flow cytometry analysis (reference value: 7.8 %); format: functional
# [20] = Aggregation property of compound at > 40 degree C; format: physicochemical
# [21] = test system: PANC-1; assay: Induction of apoptosis in human PANC1 cells assessed as necrotic cells at 10 nM and photoirradiated at 7.2 J/cm2 measured after 6 to 24 hrs by annexin-V-propidium iodide staining based FACScalibur flow cytometry analysis (reference value: 3.2 %); format: functional
# [22] = test system: PANC-1; assay: Induction of apoptosis in human PANC1 cells assessed as viable cells at 5 nM and photoirradiated at 7.2 J/cm2 measured after 6 to 24 hrs by annexin-V-propidium iodide staining based FACScalibur flow cytometry analysis (reference value: 85.5 %); format: functional; conditions: PANC-1, light or radiation study, read-out: Activity
# [23] = target: GTPase NRas (Homo sapiens) (UniProt P01111); assay: Inhibition of NRAS in human PANC1 cells assessed as decrease in NRAS mRNA level at 15 nM followed by 7.2 J/cm2 irradiation after 4 hrs by qRT-PCR analysis; format: cell-based
# GTPase NRas (Homo sapiens), sequence (P01111 whole entry): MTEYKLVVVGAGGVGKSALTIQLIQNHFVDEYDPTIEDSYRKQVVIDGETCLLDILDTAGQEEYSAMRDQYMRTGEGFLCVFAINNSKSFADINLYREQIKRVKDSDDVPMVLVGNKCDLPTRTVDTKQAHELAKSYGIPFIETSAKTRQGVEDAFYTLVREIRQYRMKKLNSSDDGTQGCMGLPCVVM
# [24] = Drug localization in cytoplasm of human PANC1 cells at 5 uM after 6 hrs by Hoechst staining based confocal microscopy; format: ADME, subcellular; conditions: panc-1, 6 h
# [25] = target: GTPase NRas (Homo sapiens) (UniProt P01111); assay: Inhibition of NRAS in human PANC1 cells assessed as downregulation of NRAS expression at 15 nM after 4 hrs by Western blot analysis; format: cell-based
# [26] = Drug uptake in human PANC1 cells at 5 uM and 4 degree C after 16 hrs by FACS analysis relative to 37 degree C; format: ADME, cell-based; conditions: panc-1, 16 h
# [27] = test system: PANC-1; assay: Induction of apoptosis in human PANC1 cells assessed as late apoptotic cells at 5 nM and photoirradiated at 7.2 J/cm2 measured after 6 to 24 hrs by annexin-V-propidium iodide staining based FACScalibur flow cytometry analysis (reference value: 3.6 %); format: functional
# [28] = target: Quadruplex DNA; assay: Binding affinity to human KRAS utr-1 RNA g-quadruplex by fluorescence spectroscopy; format: nucleic-acid assay
# [29] = Drug uptake in human PANC1 cells in presence of dynamin-inhibitor dynasore; format: ADME, cell-based; conditions: panc-1
# [30] = test system: PANC-1; assay: Induction of apoptosis in human PANC1 cells assessed as necrotic cells at 5 nM and photoirradiated at 7.2 J/cm2 measured after 6 to 24 hrs by annexin-V-propidium iodide staining based FACScalibur flow cytometry analysis (reference value: 3.2 %); format: functional
# [31] = test system: PANC-1; assay: Induction of apoptosis in human PANC1 cells assessed as early apoptotic cells at 10 nM and photoirradiated at 7.2 J/cm2 measured after 6 to 24 hrs by annexin-V-propidium iodide staining based FACScalibur flow cytometry analysis (reference value: 7.8 %); format: functional
# [32] = Drug uptake in human HEK293 cells at 5 uM and 4 degree C after 16 hrs by FACS analysis relative to 37 degree C; format: ADME, cell-based; conditions: hek293, 16 h
# [33] = target: GTPase KRas (Homo sapiens) (UniProt P01116); assay: Inhibition of KRAS in human PANC1 cells assessed as downregulation of KRAS expression at 15 nM followed by 7.2 J/cm2 irradiation after 4 hrs by Western blot analysis (reference value: 5 %); format: cell-based
# [34] = test system: PANC-1; assay: Induction of apoptosis in human PANC1 cells assessed as cleavage of caspase 7 when photoirradiated at 7.2 J/cm2 by Western blot analysis; format: functional, cell-based
# [35] = target: GTPase KRas (Homo sapiens) (UniProt P01116); assay: Inhibition of KRAS in human PANC1 cells assessed as downregulation of KRAS expression at 15 nM after 4 hrs by Western blot analysis; format: cell-based
# [36] = target: Quadruplex DNA; assay: Binding affinity to human KRAS utr-c RNA g-quadruplex by fluorescence spectroscopy; format: nucleic-acid assay
# [37] = test system: PANC-1; assay: Induction of apoptosis in human PANC1 cells assessed as viable cells at 15 nM and photoirradiated at 7.2 J/cm2 measured after 6 to 24 hrs by annexin-V-propidium iodide staining based FACScalibur flow cytometry analysis (reference value: 85.5 %); format: functional; conditions: PANC-1, light or radiation study, read-out: Activity
# [38] = test system: PANC-1; assay: Induction of apoptosis in human PANC1 cells assessed as necrotic cells at 15 nM and photoirradiated at 7.2 J/cm2 measured after 6 to 24 hrs by annexin-V-propidium iodide staining based FACScalibur flow cytometry analysis (reference value: 3.2 %); format: functional
# [39] = test system: PANC-1; assay: Induction of apoptosis in human PANC1 cells assessed as late apoptotic cells at 15 nM and photoirradiated at 7.2 J/cm2 measured after 6 to 24 hrs by annexin-V-propidium iodide staining based FACScalibur flow cytometry analysis (reference value: 3.6 %); format: functional
# [40] = target: GTPase NRas (Homo sapiens) (UniProt P01111); assay: Inhibition of NRAS in human PANC1 cells assessed as downregulation of NRAS expression at 15 nM followed by 7.2 J/cm2 irradiation after 4 hrs by Western blot analysis (reference value: 25 %); format: cell-based
# [41] = test system: Quadruplex DNA; assay: Binding affinity to human KRAS utr-z RNA g-quadruplex assessed as compound-RNA complex stoichiometry ratio of 9:1 by Job's plot analysis; format: nucleic-acid assay
# [42] = target: Quadruplex DNA; assay: Binding affinity to NRAS RNA g-quadruplex (unknown origin) by fluorescence spectroscopy; format: nucleic-acid assay
# [43] = Drug uptake in mouse NIH/3T3 cells at 5 uM and 4 degree C after 16 hrs by FACS analysis relative to 37 degree C; format: ADME, cell-based; conditions: nih3t3, 16 h
structure (smiles),measurement,setting,value
C[n+]1ccccc1-c1c2nc(c(-c3cccc[n+]3C)c3ccc([nH]3)c(-c3cccc[n+]3C)c3ccc([nH]3)c(-c3cccc[n+]3C)c3nc1C=C3)C=C2.[Cl-].[Cl-].[Cl-].[Cl-],Drug uptake,[1],Not Active
same,Activity,[2],inactive
same,Drug uptake,[3],Active
same,Activity,[4],inactive
CCCCCCCCCCCCCCCC[n+]1ccc(-c2c3nc(c(-c4cc[n+](C)cc4)c4ccc([nH]4)c(-c4cc[n+](C)cc4)c4nc(c(-c5cc[n+](C)cc5)c5ccc2[nH]5)C=C4)C=C3)cc1.[I-].[I-].[I-].[I-],Activity,[5],Active
same,Activity,[6],Active
same,Kd,[7],56 to 98 nM
same,EC50,[8],19.2 nM
same,Activity,[9],Non-Toxic
same,Activity,[10],inactive
same,Kd,[11],82 to 202 nM
CCCCCCCCCCCCCCCCCC[n+]1ccc(-c2c3nc(c(-c4cc[n+](C)cc4)c4ccc([nH]4)c(-c4cc[n+](C)cc4)c4nc(c(-c5cc[n+](C)cc5)c5ccc2[nH]5)C=C4)C=C3)cc1.[I-].[I-].[I-].[I-],Activity,[12],3.53%
same,Activity,[13],Active
same,inhibition,[14],Active
same,Activity,[15],11.43%
same,viability at 0.01 µM,[16],81.5%
same,Activity,[5],Active
same,Activity,[6],Active
same,Kd,[17],99 nM
same,Activity,[18],Active
same,Activity,[19],7.35%
same,Activity,[20],Active
same,Activity,[21],4.03%
same,viability at 0.005 µM,[22],78.2%
same,Kd,[7],56 to 98 nM
same,inhibition,[23],Active
same,Drug uptake,[24],Active
same,EC50,[8],16.4 nM
same,inhibition,[25],inactive
same,Drug uptake,[26],47%
same,Activity,[27],12.4%
same,Drug uptake,[1],Active
same,Kd,[28],150 nM
same,Drug uptake,[29],Not Active
same,Activity,[30],2.1%
same,Activity,[9],Non-Toxic
same,Activity,[10],inactive
same,Drug uptake,[3],Active
same,Activity,[31],3.03%
same,Drug uptake,[32],Active
same,inhibition,[33],20%
same,Activity,[34],Active
same,inhibition,[35],inactive
same,Kd,[36],188 nM
same,viability at 0.015 µM,[37],75.1%
same,Activity,[38],5.77%
same,Activity,[39],15.63%
same,inhibition,[40],50%
same,Kd,[11],82 to 202 nM
same,Activity,[41],Active
same,Kd,[42],32 nM
same,Drug uptake,[43],Active
